Results taken from patent US8642554B2, “Smac mimetic dimers and trimers useful as anti-cancer agents” (Joyant Pharmaceuticals, Inc., priority 2007, dated 2014).

What was measured:
HCC461 cells = test: Cell viability assay in HCC461 cells (WST-1); assay type: cell-based; details: 48 hrs incubation
Method: HCC461 cells plated in 96 well plates at 5×10^4/ml cell density are treated with 50× synthetic Smac mimetic compounds (final concentration range between 30 uM and 0.001 uM). After 48 hrs incubation at 37° C. and 5% CO2 viability of the cells are measured using Cell Proliferation Reagent WST-1 assay kit (Roche Cat #11 644 807 001).
WST-1 assay principle: The tetrazolium salts are cleaved to formazan by cellular enzymes. An expansion in the number of viable cells results in an increase in the overall activity of mitochondrial dehydrogenases in the samples. This augmentation in the enzyme activity leads to an increase in the amount of formazan dye formed, which directly correlates to the number of metabolically active cells in the culture. Quantification of the formazan dye produced by metabolically active cells by using a microplate (ELISA) reader at 420-480 nm.

[1] = system: Caspase3 activity in Hela S100 (blocked by IAPs); test: In vitro caspase-3 activation assay in Hela S100; assay type: biochemical; details: 100 nM compound, activity compared with reference compound, Table 1 experiment
Method: Caspase3 in most cell extracts can be activated by the addition of 1 mM dATP through the mitochondria caspase pathway. […] Taking advantage of this feature, we use 100 nM of synthetic Smac mimetic compound to test its ability to eliminate IAPs in the Hela S100 and fully induce Caspase3 activity. The In Vitro Caspase3 assay is carried out at 30° C., incubating 100 nM compounds with 30 ug of Hela S100, 1 mM dATP, 10 uM Caspase3 fluorogenic substrate (Caspase3 Substrate II, Fluorogenic, #235425 from Calbiochem). The readout is caspase-3 activity represented by relative fluorogenic unit, which is recorded kinetically. The slope in linear region of the curve for each compound is calculated.
Percent activity data is presented by comparing activity of the test compound with activity of the reference compound in Caspase-3 activation assay in vitro. The ratio of each synthetic compound's slope versus the slope of control reflects in vitro caspase-3 activation ability of compounds.

[2] = target: truncated XIAP containing only BIR1, BIR2, and BIR3 domains (Homo sapiens, UniProt P98170); test: Fluorescent polarization (FP) assay; assay type: binding
Chain of truncated XIAP containing only BIR1, BIR2, and BIR3 domains (P98170 26-330 limits assumed): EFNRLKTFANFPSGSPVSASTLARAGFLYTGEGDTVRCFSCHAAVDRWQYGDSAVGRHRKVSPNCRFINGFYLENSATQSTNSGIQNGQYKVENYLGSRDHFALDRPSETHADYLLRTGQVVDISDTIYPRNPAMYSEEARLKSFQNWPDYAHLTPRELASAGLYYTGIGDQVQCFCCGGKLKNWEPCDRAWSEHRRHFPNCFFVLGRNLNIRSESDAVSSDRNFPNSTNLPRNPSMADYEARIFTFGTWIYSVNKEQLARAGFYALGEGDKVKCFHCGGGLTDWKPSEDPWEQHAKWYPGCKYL
Method: Increasing concentrations of Smac compounds are incubated with 2 nM of labeled peptide (fluorescein labeled 10mer peptide with AVPI 4 amino acids at its N terminus-Alexa Fluor 488) and truncated XIAP containing only BIR1, BIR2, and BIR3 domains at room temperature for 1 hour. Fluorescence reading, indicative of the bound portion of the labeled peptide, is measured in milipolarization units (mP). The more compound added, less fluorescein labeled peptide bind to the protein due to the competitive binding and less fluorescence signal is released.
Based on this principle, we obtain the Ki value that evaluates compound's binding affinity.

[3] = HCC461, 48 h, Table 1 experiment
[4] = HCC461, 48 h, Table 2 experiment

Compound	IC50 (HCC461 cells; [3]) [µM]	Ki ([2]; Table 1 experiment) [µM]	IC50 (HCC461 cells; [4]) [µM]	Ki ([2]; Table 2 experiment) [µM]	further results
CN[C@@H](C)C(=O)NC(C(=O)C1C[C@@H](NC(=O)C2CCCC2C(=O)N[C@H]2CC(C(=O)N[C@@H]3CCCc4ccccc43)N(C(=O)[C@@H](NC(=O)[C@H](C)NC)C(C)(C)C)C2)CC1C(=O)N[C@@H]1CCCc2ccccc21)C(C)(C)C.Cl.Cl (single isomer, unassigned) [compound 17]	0.019	0.5			% Activity at 100 nM ([1]; 0.1 µM): 92%
CN[C@@H](C)C(=O)NC(C(=O)C1C[C@@H](NC(=O)C2CCCC2C(=O)N[C@H]2CC(C(=O)N[C@@H]3CCCc4ccccc43)N(C(=O)[C@@H](NC(=O)[C@H](C)NC)C(C)(C)C)C2)CC1C(=O)N[C@@H]1CCCc2ccccc21)C(C)(C)C.Cl.Cl (single isomer, unassigned) [compound 18]		0.35			IC50 (HCC461 cells; Table 1 experiment): 0.033 µM; % Activity at 100 nM ([1]; 0.1 µM): 107%
CN[C@@H](C)C(=O)N[C@@H](CC#CC#CC[C@H](NC(=O)[C@H](C)NC)C(=O)N1CCC[C@H]1C(=O)N[C@@H]1CCCc2ccccc21)C(=O)N1CCC[C@H]1C(=O)N[C@@H]1CCCc2ccccc21.Cl.Cl [Ref cpd, reference compound]	0.082	0.35	0.063	0.15	% Activity at 100 nM [1]: 100%
CN[C@@H](C)C(=O)N[C@H](C(=O)N1C[C@@H](NC(=O)c2ccc(C(=O)N[C@H]3C[C@@H](C(=O)N[C@@H]4CCCc5ccccc54)N(C(=O)[C@@H](NC(=O)[C@H](C)NC)C(C)(C)C)C3)s2)C[C@H]1C(=O)N[C@@H]1CCCc2ccccc21)C(C)(C)C.Cl.Cl [compound 12]	0.002	0.4			% Activity at 100 nM [1]: 104%
CN[C@@H](C)C(=O)N[C@H](C(=O)N1C[C@@H](NS(=O)(=O)c2cccc(S(=O)(=O)N[C@H]3C[C@@H](C(=O)N[C@@H]4CCCc5ccccc54)N(C(=O)[C@@H](NC(=O)[C@H](C)NC)C(C)(C)C)C3)c2)C[C@H]1C(=O)N[C@@H]1CCCc2ccccc21)C(C)(C)C.Cl.Cl [compound 13]	0.026	0.3			% Activity at 100 nM [1]: 108%
CN[C@@H](C)C(=O)N[C@H](C(=O)N1C[C@@H](NC(=O)c2cc(O)cc(C(=O)N[C@H]3C[C@@H](C(=O)N[C@@H]4CCCc5ccccc54)N(C(=O)[C@@H](NC(=O)[C@H](C)NC)C(C)(C)C)C3)c2)C[C@H]1C(=O)N[C@@H]1CCCc2ccccc21)C(C)(C)C.Cl.Cl [compound 14]	0.026	0.44			% Activity at 100 nM [1]: 86%
CN[C@@H](C)C(=O)N[C@H](C(=O)N1C[C@@H](NC(=O)c2cc(C(=O)N[C@H]3C[C@@H](C(=O)N[C@@H]4CCCc5ccccc54)N(C(=O)[C@@H](NC(=O)[C@H](C)NC)C(C)(C)C)C3)[nH]n2)C[C@H]1C(=O)N[C@@H]1CCCc2ccccc21)C(C)(C)C.Cl.Cl [compound 15]	0.009	0.45			% Activity at 100 nM [1]: 116%
CN[C@@H](C)C(=O)N[C@H](C(=O)N1C[C@@H](NC(=O)CN(C)CC(=O)N[C@H]2C[C@@H](C(=O)N[C@@H]3CCCc4ccccc43)N(C(=O)[C@@H](NC(=O)[C@H](C)NC)C(C)(C)C)C2)C[C@H]1C(=O)N[C@@H]1CCCc2ccccc21)C(C)(C)C.Cl.Cl.Cl [compound 16]	0.074	0.4			% Activity at 100 nM [1]: 115%
C#CC[C@H](NC(=O)[C@H](C)NC)C(=O)N1C[C@@H](NC(=O)c2cccc(C(=O)N[C@H]3C[C@@H](C(=O)N[C@@H]4CCCc5ccccc54)N(C(=O)[C@H](CC#C)NC(=O)[C@H](C)NC)C3)n2)C[C@H]1C(=O)N[C@@H]1CCCc2ccccc21 [compound 20]	0.222				
CN[C@@H](C)C(=O)N[C@H](C(=O)N1C[C@@H](NC(=O)[C@H](O)[C@@H](O)C(=O)N[C@H]2C[C@@H](C(=O)N[C@@H]3CCCc4ccccc43)N(C(=O)[C@@H](NC(=O)[C@H](C)NC)C(C)(C)C)C2)C[C@H]1C(=O)N[C@@H]1CCCc2ccccc21)C(C)(C)C [compound 21]	0.101				
C#CC[C@H](NC(=O)[C@H](C)NC)C(=O)N1C[C@@H](NC(=O)[C@H](O)[C@@H](O)C(=O)N[C@H]2C[C@@H](C(=O)N[C@@H]3CCCc4ccccc43)N(C(=O)[C@H](CC#C)NC(=O)[C@H](C)NC)C2)C[C@H]1C(=O)N[C@@H]1CCCc2ccccc21 [compound 22]	0.263				
CN[C@@H](C)C(=O)NC(C(=O)C1C[C@@H](NC(=O)C2CCCC2C(=O)N[C@H]2CC(C(=O)N[C@@H]3CCCc4ccccc43)N(C(=O)[C@@H](NC(=O)[C@H](C)NC)C(C)(C)C)C2)CC1C(=O)N[C@@H]1CCCc2ccccc21)C(C)(C)C (stereo partly shown) [compound 23]				0.05	IC50 (HCC461 cells; Table 2 experiment): 0.002 µM
CN[C@@H](C)C(=O)NC(C(=O)C1C[C@@H](NC(=O)C2CCCC2C(=O)N[C@H]2CC(C(=O)N[C@@H]3CCCc4ccccc43)N(C(=O)[C@@H](NC(=O)[C@H](C)NC)C(C)(C)C)C2)CC1C(=O)N[C@@H]1CCCc2ccccc21)C(C)(C)C (stereo partly shown) [compound 24]				0.35	IC50 (HCC461 cells; Table 2 experiment): 0.021 µM
CN[C@@H](C)C(=O)NC(C(=O)C1C[C@@H](NC(=O)C2CCCC(C(=O)N[C@H]3CC(C(=O)N[C@@H]4CCCc5ccccc54)N(C(=O)[C@@H](NC(=O)[C@H](C)NC)C(C)(C)C)C3)C2)CC1C(=O)N[C@@H]1CCCc2ccccc21)C(C)(C)C (stereo partly shown) [compound 25]			0.024	0.25	
CN[C@@H](C)C(=O)N[C@H](C(=O)N1C[C@@H](NC(=O)CC(C)(O)CC(=O)N[C@H]2C[C@@H](C(=O)N[C@@H]3CCCc4ccccc43)N(C(=O)[C@@H](NC(=O)[C@H](C)NC)C(C)(C)C)C2)C[C@H]1C(=O)N[C@@H]1CCCc2ccccc21)C(C)(C)C [compound 26]			0.023	0.32	
CN[C@@H](C)C(=O)N[C@H](C(=O)N1C[C@@H](NC(=O)COCC(=O)N[C@H]2C[C@@H](C(=O)N[C@@H]3CCCc4ccccc43)N(C(=O)[C@@H](NC(=O)[C@H](C)NC)C(C)(C)C)C2)C[C@H]1C(=O)N[C@@H]1CCCc2ccccc21)C(C)(C)C [compound 27]			0.082	0.25	
CN[C@@H](C)C(=O)N[C@H](C(=O)N1C[C@@H](NC(=O)c2c(F)c(F)c(F)c(C(=O)N[C@H]3C[C@@H](C(=O)N[C@@H]4CCCc5ccccc54)N(C(=O)[C@@H](NC(=O)[C@H](C)NC)C(C)(C)C)C3)c2F)C[C@H]1C(=O)N[C@@H]1CCCc2ccccc21)C(C)(C)C [compound 28]			0.002	0.23	
CN[C@@H](C)C(=O)N[C@H](C(=O)N1C[C@@H](NC(=O)C23CC4CC(C2)CC(C(=O)N[C@H]2C[C@@H](C(=O)N[C@@H]5CCCc6ccccc65)N(C(=O)[C@@H](NC(=O)[C@H](C)NC)C(C)(C)C)C2)(C4)C3)C[C@H]1C(=O)N[C@@H]1CCCc2ccccc21)C(C)(C)C [compound 29]			0.005	0.24	
CN[C@@H](C)C(=O)N[C@H](C(=O)N1C[C@@H](NC(=O)[C@H]2CC[C@@](C)(C(=O)N[C@H]3C[C@@H](C(=O)N[C@@H]4CCCc5ccccc54)N(C(=O)[C@@H](NC(=O)[C@H](C)NC)C(C)(C)C)C3)C2(C)C)C[C@H]1C(=O)N[C@@H]1CCCc2ccccc21)C(C)(C)C [compound 30]			0.008	0.29	
CN[C@@H](C)C(=O)N[C@H](C(=O)N1C[C@@H](NC(=O)[C@@H]2CC[C@](C)(C(=O)N[C@H]3C[C@@H](C(=O)N[C@@H]4CCCc5ccccc54)N(C(=O)[C@@H](NC(=O)[C@H](C)NC)C(C)(C)C)C3)C2(C)C)C[C@H]1C(=O)N[C@@H]1CCCc2ccccc21)C(C)(C)C [compound 31]			0.003	0.34	
CN[C@@H](C)C(=O)N[C@H](C(=O)N1C[C@@H](NC(=O)c2cc(N)cc(C(=O)N[C@H]3C[C@@H](C(=O)N[C@@H]4CCCc5ccccc54)N(C(=O)[C@@H](NC(=O)[C@H](C)NC)C(C)(C)C)C3)c2)C[C@H]1C(=O)N[C@@H]1CCCc2ccccc21)C(C)(C)C [compound 32]			0.015	0.23	
